From US5462935A, “Cephalosporin compounds” (Lucky Limited, priority 1990, dated 1995)
In brackets after ≈: the same amount, converted by molar mass.

What was measured:
[1] = system: Pseudomonas aeruginosa ATCC 25619; test: minimal inhibitory concentration, two-fold agar dilution; assay type: cell-based; details: ATCC25619, Muller-Hinton agar, 37° C., 20 hours
Protocol: (§1) These NIC values were taken by employing a two-fold dilution method: that is, two-fold serial dilutions of each of the test compounds were made and dispersed in a Muller-Hinton agar medium; 2 μl of the standard test strain which had the 10^7 CFU (Colony Forming Unit) per ml was inoculated on the medium; and these were incubated at 37° C. for 20 hours.

[2] = system: Bacillus megaterium ATCC 9885; test: as above; assay type: cell-based; details: Priestia megaterium, ATCC9885, 20 h
Protocol: as §1

[3] = system: Providencia rettgeri ATCC 9250; test: as above; assay type: cell-based; details: ATCC9250, Muller-Hinton agar, 37° C., 20 hours
Protocol: as §1

[4] = system: Acinetobacter calcoaceticus ATCC 15473; test: as above; assay type: cell-based; details: ATCC15473, Muller-Hinton agar, 37° C., 20 hours
Protocol: as §1

[5] = system: Klebsiella pneumoniae ATCC 10031; test: as above; assay type: cell-based; details: ATCC10031, Muller-Hinton agar, 37° C., 20 hours
Protocol: as §1

[6] = system: Pseudomonas aerugionsa ATCC 10145; test: as above; assay type: cell-based; details: ATCC10145, Muller-Hinton agar, 37° C., 20 hours
Protocol: as §1

[7] = system: ATCC 12228; test: as above; assay type: cell-based; details: Staphylococcus faecalis, ATCC12228, 20 h
Protocol: as §1

[8] = system: Serratia marcescens ATCC 27117; test: as above; assay type: cell-based; details: ATCC27117, Muller-Hinton agar, 37° C., 20 hours
Protocol: as §1

[9] = system: Streptococcus faecalis ATCC 29212; test: as above; assay type: cell-based; details: Enterococcus faecalis, ATCC29212, Muller-Hinton agar, 37° C., 20 hours
Protocol: as §1

[10] = system: Morganella morganii ATCC 8076h; test: as above; assay type: cell-based; details: ATCC8076H, 20 h
Protocol: as §1

[11] = system: Citrobacter freundii ATCC 8090; test: as above; assay type: cell-based; details: ATCC8090, Muller-Hinton agar, 37° C., 20 hours
Protocol: as §1

[12] = system: Escherichia coli ATCC 25922; test: as above; assay type: cell-based; details: ATCC25922, Muller-Hinton agar, 37° C., 20 hours
Protocol: as §1

[13] = system: Enterobacter cloacae ATCC 27508; test: as above; assay type: cell-based; details: ATCC27508, Muller-Hinton agar, 37° C., 20 hours
Protocol: as §1

[14] = system: Proteus mirabilis ATCC 25933; test: as above; assay type: cell-based; details: ATCC25933, Muller-Hinton agar, 37° C., 20 hours
Protocol: as §1

[15] = system: Proteus vulgaris ATCC 6059; test: as above; assay type: cell-based; details: ATCC6059, Muller-Hinton agar, 37° C., 20 hours
Protocol: as §1

[16] = system: Staphylococcus aureus ATCC 6638p; test: as above; assay type: cell-based; details: ATCC6638P, 20 h
Protocol: as §1

[17] = system: Pseudomonas aerugionsa ATCC 27853; test: as above; assay type: cell-based; details: ATCC27853, Muller-Hinton agar, 37° C., 20 hours
Protocol: as §1

[18] = system: Shigella sonnei ATCC 11060; test: as above; assay type: cell-based; details: ATCC11060, Muller-Hinton agar, 37° C., 20 hours
Protocol: as §1

[19] = system: Staphylococcus epidermidis ATCC 10537; test: as above; assay type: cell-based; details: ATCC10537, Muller-Hinton agar, 37° C., 20 hours
Protocol: as §1

[20] = system: Enterobacter aerogenes ATCC 29751; test: as above; assay type: cell-based; details: Klebsiella aerogenes, ATCC29751, 20 h
Protocol: as §1

[21] = system: Bacillus cereus ATCC 11778; test: as above; assay type: cell-based; details: Bacillus cereus, ATCC11778, 20 h
Protocol: as §1

[22] = system: Salmonella typhimurium ATCC 14028; test: as above; assay type: cell-based; details: Salmonella enterica, Muller-Hinton agar, 37° C., 20 hours
Protocol: as §1

[23] = system: Shigella flexneri ATCC 11836; test: as above; assay type: cell-based; details: ATCC11836, Muller-Hinton agar, 37° C., 20 hours
Protocol: as §1

[24] = system: Micrococcus luteus ATCC 9341; test: as above; assay type: cell-based; details: ATCC9341, Muller-Hinton agar, 37° C., 20 hours
Protocol: as §1

[25] = system: Escherichia coli ATCC 10536; test: as above; assay type: cell-based; details: ATCC10536, Muller-Hinton agar, 37° C., 20 hours
Protocol: as §1

[26] = acute toxicity test, intravenous; details: mouse, in vivo, ICR mice, observed for 14 days
Excerpt: The results are shown in the last row of Table 2.

With `CC[n+]1c(N)cc(N)nc1SCC1=C(C(=O)[O-])N2C(=O)C(NC(=O)/C(=N\O[C@@H](C)C(=O)O)c3csc(N)n3)[C@H]2SC1` (stereo partly drawn) [I-S-3, 7[(Z)-2-(2-aminothiazol-4-yl)-2[(S)-1-carboxyeth-1-oxyimino]acetamido]-3-[(4,6-diamino-1-ethylpyrimidinium-2-yl)thiomethyl]-3-cephem-4-carboxylate] the MIC [1] was 1 µg/mL (≈ 1.6 µM), the MIC [2] was 0.25 µg/mL (≈ 0.401 µM) and the MIC [3] was no more than 0.008 µg/mL. For the same molecule, the MIC [4] was 4 µg/mL (≈ 6.41 µM), the MIC [5] was 0.031 µg/mL (≈ 0.0497 µM) and the MIC [6] was 2 µg/mL (≈ 3.21 µM). It also gave an MIC [7] of 1 µg/mL (≈ 1.6 µM), an MIC [8] of 0.063 µg/mL (≈ 0.101 µM) and an MIC [9] greater than 128 µg/mL. The MIC [10] was no more than 0.008 µg/mL, the MIC [11] was 0.031 µg/mL (≈ 0.0497 µM) and the MIC [12] was 0.031 µg/mL (≈ 0.0497 µM). The MIC [13] was no more than 0.008 µg/mL, the MIC [14] was 0.031 µg/mL (≈ 0.0497 µM) and the MIC [15] was 0.031 µg/mL (≈ 0.0497 µM). For the same molecule, the MIC [16] was 2 µg/mL (≈ 3.21 µM), the MIC [17] was 1 µg/mL (≈ 1.6 µM) and the MIC [18] was 0.063 µg/mL (≈ 0.101 µM). The MIC [19] was 1 µg/mL (≈ 1.6 µM), the MIC [20] was 1 µg/mL (≈ 1.6 µM) and the MIC [21] was 32 µg/mL (≈ 51.3 µM). It also gave an MIC [22] of 0.13 µg/mL (≈ 0.208 µM), an MIC [23] of 0.016 µg/mL (≈ 0.0257 µM) and an MIC [24] of 0.25 µg/mL (≈ 0.401 µM). It also gave an MIC [25] of 0.031 µg/mL (≈ 0.0497 µM) and an LD50 at 336 h [26] greater than 3000 mg/kg.

In the case of `Cc1c(N)nc(SCC2=C(C(=O)[O-])N3C(=O)C(NC(=O)/C(=N\O[C@@H](C)C(=O)O)c4csc(N)n4)C3SC2)[n+](C)c1N` (stereo partly drawn) [I-S-6, 7-[(Z)-2-(2-aminothiazol-4-yl)-2-[(S)-1-carboxyeth-1-oxyimino]acetamido]-3-[(4,6-diamino-1,5-dimethylpyrimidinium-2-yl)thiomethyl]-3-cephem-4-carboxylate], the MIC [1] is reported as 1 µg/mL (≈ 1.6 µM), the MIC [2] is reported as 0.25 µg/mL (≈ 0.401 µM) and the MIC [3] is reported as no more than 0.008 µg/mL. For the same molecule, the MIC [4] was 4 µg/mL (≈ 6.41 µM), the MIC [5] was 0.031 µg/mL (≈ 0.0497 µM) and the MIC [6] was 2 µg/mL (≈ 3.21 µM). It also gave an MIC [7] of 1 µg/mL (≈ 1.6 µM), an MIC [8] of 0.13 µg/mL (≈ 0.208 µM) and an MIC [9] greater than 128 µg/mL. For the same molecule, the MIC [10] was no more than 0.008 µg/mL, the MIC [11] was 0.016 µg/mL (≈ 0.0257 µM) and the MIC [12] was 0.031 µg/mL (≈ 0.0497 µM). It also gave an MIC [13] of no more than 0.008 µg/mL, an MIC [14] of 0.031 µg/mL (≈ 0.0497 µM) and an MIC [15] of 0.031 µg/mL (≈ 0.0497 µM). For the same molecule, the MIC [16] was 4 µg/mL (≈ 6.41 µM), the MIC [17] was 1 µg/mL (≈ 1.6 µM) and the MIC [18] was 0.031 µg/mL (≈ 0.0497 µM). For the same molecule, the MIC [19] was 2 µg/mL (≈ 3.21 µM), the MIC [20] was 0.5 µg/mL (≈ 0.802 µM) and the MIC [21] was 64 µg/mL (≈ 103 µM). It also gave an MIC [22] of 0.13 µg/mL (≈ 0.208 µM), an MIC [23] of 0.016 µg/mL (≈ 0.0257 µM) and an MIC [24] of 0.25 µg/mL (≈ 0.401 µM). For the same molecule, the MIC [25] was 0.031 µg/mL (≈ 0.0497 µM) and the LD50 at 336 h [26] was greater than 3000 mg/kg.

With `C[C@H](O/N=C(\C(=O)NC1C(=O)N2C(C(=O)[O-])=C(CSc3nc(N)cc(N)[n+]3-c3ccccc3)CS[C@H]12)c1csc(N)n1)C(=O)O` (stereo partly drawn) [I-S-5, 7-[(Z)-2-(2-aminothiazol-4-yl)-2-[(S)-1-carboxyeth-1-oxyimino]acetamido]-3-[(4,6-diamino-1-phenylpyrimidinium-2-yl)thiomethyl]-3-cephem-4-carboxylate] the MIC [1] was 2 µg/mL (≈ 2.98 µM), the MIC [2] was 0.25 µg/mL (≈ 0.372 µM) and the MIC [3] was no more than 0.008 µg/mL. For the same molecule, the MIC [4] was 16 µg/mL (≈ 23.8 µM), the MIC [5] was 0.13 µg/mL (≈ 0.194 µM) and the MIC [6] was 8 µg/mL (≈ 11.9 µM). The MIC [7] was 2 µg/mL (≈ 2.98 µM), the MIC [8] was 0.5 µg/mL (≈ 0.744 µM) and the MIC [9] was greater than 128 µg/mL. It also gave an MIC [10] of no more than 0.008 µg/mL, an MIC [11] of 0.13 µg/mL (≈ 0.194 µM) and an MIC [12] of 0.25 µg/mL (≈ 0.372 µM). It also gave an MIC [13] of 0.031 µg/mL (≈ 0.0461 µM), an MIC [14] of 0.13 µg/mL (≈ 0.194 µM) and an MIC [15] of 0.063 µg/mL (≈ 0.0938 µM). The MIC [16] was 4 µg/mL (≈ 5.95 µM), the MIC [17] was 4 µg/mL (≈ 5.95 µM) and the MIC [18] was 0.25 µg/mL (≈ 0.372 µM). For the same molecule, the MIC [19] was 4 µg/mL (≈ 5.95 µM), the MIC [20] was 2 µg/mL (≈ 2.98 µM) and the MIC [21] was 32 µg/mL (≈ 47.6 µM). For the same molecule, the MIC [22] was 0.5 µg/mL (≈ 0.744 µM), the MIC [23] was 0.13 µg/mL (≈ 0.194 µM) and the MIC [24] was 0.25 µg/mL (≈ 0.372 µM). It also gave an MIC [25] of 0.25 µg/mL (≈ 0.372 µM) and an LD50 at 336 h [26] greater than 2000 mg/kg.

`C[C@@H](O/N=C(\C(=O)NC1C(=O)N2C(C(=O)[O-])=C(CSc3nc(N)cc(N)[n+]3C)CS[C@H]12)c1csc(N)n1)C(=O)O` (stereo partly drawn) [I-R-2, 7-[(Z)-2-(2-aminothiazol-4-yl)-2-[(R)-1-carboxyeth-1-oxyimino]acetamido]-3-[(4,6-diamino-1-methylpyrimidinium-2-yl)thiomethyl]-3-cephem-4-carboxylate] gave an MIC [1] of 2 µg/mL (≈ 3.28 µM), an MIC [2] of 1 µg/mL (≈ 1.64 µM) and an MIC [3] of no more than 0.008 µg/mL. The MIC [4] was 4 µg/mL (≈ 6.56 µM), the MIC [5] was 0.031 µg/mL (≈ 0.0508 µM) and the MIC [6] was 2 µg/mL (≈ 3.28 µM). It also gave an MIC [7] of 2 µg/mL (≈ 3.28 µM), an MIC [8] of 0.063 µg/mL (≈ 0.103 µM) and an MIC [9] greater than 128 µg/mL. It also gave an MIC [10] of no more than 0.008 µg/mL, an MIC [11] of 0.063 µg/mL (≈ 0.103 µM) and an MIC [12] of 0.031 µg/mL (≈ 0.0508 µM). The MIC [13] was 0.016 µg/mL (≈ 0.0262 µM), the MIC [14] was 0.031 µg/mL (≈ 0.0508 µM) and the MIC [15] was 0.031 µg/mL (≈ 0.0508 µM). The MIC [16] was 4 µg/mL (≈ 6.56 µM), the MIC [17] was 1 µg/mL (≈ 1.64 µM) and the MIC [18] was 0.031 µg/mL (≈ 0.0508 µM). For the same molecule, the MIC [19] was 2 µg/mL (≈ 3.28 µM), the MIC [20] was 1 µg/mL (≈ 1.64 µM) and the MIC [21] was greater than 128 µg/mL. The MIC [22] was 0.13 µg/mL (≈ 0.213 µM), the MIC [23] was 0.031 µg/mL (≈ 0.0508 µM) and the MIC [24] was 0.5 µg/mL (≈ 0.82 µM). It also gave an MIC [25] of 0.063 µg/mL (≈ 0.103 µM) and an LD50 at 336 h [26] greater than 3000 mg/kg.
